From ChEMBL document CHEMBL1150659, “Pachyclavulariaenones D-G, new diterpenoids from the soft coral Pachyclavularia violacea” (2002)
Converted amounts (≈) assume the structure as drawn.

Legend:
HT-29 = assay: Cytotoxicity against human HT-29 cells; format: functional
A549 = assay: Cytotoxicity against human A549 cells; format: functional
P-388 (Mus musculus) = assay: Cytotoxicity against mouse P-388 cells; settings: read-out: ED50 (the source's name)
P388 = assay: Cytotoxicity against mouse P388 cells; format: functional, cell-based

Row | SMILES | Activity (HT-29) | Activity (A549) | EC50 (P-388 (Mus musculus)) | EC50 (HT-29; read-out: ED50 (the source's name)) | Activity (P388)
1 | CC(=O)O[C@@H]1C[C@@H](O)[C@]2(C)OC[C@H](C)[C@H]3C(=O)C=C(C)[C@@H]4[C@H]3[C@@H]2O[C@H]4C[C@@]1(C)O | Not toxic | Not toxic | – | – | –
2 | CC(=O)O[C@@H]1C[C@@H](OC(C)=O)[C@](C)(O)C[C@@H]2O[C@H]3[C@@H]4[C@H]2C(C)=CC(=O)[C@@H]4[C@@H](C)CO[C@@]13C | Not toxic | Not toxic | – | – | –
3 | CC1=CC(=O)[C@H]2[C@H]3[C@@H]1[C@@H]1C[C@@](C)(O)[C@H](O)C[C@@H](O)[C@](C)(OC[C@@H]2C)[C@H]3O1 [PACHYCLAVULARIAENONE G] | – | – | 0.2 µg/mL (≈ 0.546 µM) | 3.2 µg/mL (≈ 8.73 µM) | –
4 | CC1=CC(=O)[C@H]2[C@H]3[C@@H]1[C@@H]1C/C(C)=C\C[C@@H](O)[C@](C)(OC[C@@H]2C)[C@H]3O1 | Not toxic | Not toxic | – | – | Not toxic
